Consider one compound from ChEMBL document CHEMBL4229379, “Synthesis and structure-activity relationship of novel bisindole amidines active against MDR Gram-positive and Gram-negative bacteria” (Eur J Med Chem, 2018).

≈ marks a conversion by molar mass, not a printed value.

Holding throughout (type): functional
In assay [1] the test system is Escherichia coli. In words: Antibacterial activity against extended-spectrum beta-lactamase harboring Escherichia coli 13-1 after 18 hrs by CLSI broth microdilution method. As to conditions: 13-1, 18 h.
The subject of assay [2] is Escherichia coli. In words: Antibacterial activity against extended-spectrum beta-lactamase harboring Escherichia coli CDC1001728 after 18 hrs by CLSI broth microdilution method. As to conditions: CDC1001728, 18 h.
Assay [3] has as its system Klebsiella pneumoniae. In words: Antibacterial activity against new delhi metallo-beta-lactamase-1 harboring Klebsiella pneumoniae 13-1 after 18 hrs by CLSI broth microdilution method. As to conditions: 13-1, 18 h. For orientation: Dilution methods test growth across graded concentrations, often in twofold steps.
For assay [4], the system named is Klebsiella pneumoniae. In words: Antibacterial activity against carbapenem-resistant Klebsiella pneumoniae 12-11 after 18 hrs by CLSI broth microdilution method. As to conditions: 12-11, 18 h.
Assay [5] concerns Klebsiella pneumoniae. Put plainly: Antibacterial activity against carbapenem-resistant Klebsiella pneumoniae 12-12 after 18 hrs by CLSI broth microdilution method. To be noted: 12-12, 18 h.
Assay [6] concerns Acinetobacter calcoaceticus. Put plainly: Antibacterial activity against new delhi metallo-beta-lactamase-1 harboring Acinetobacter calcoaceticus 13-1 after 18 hrs by CLSI broth microdilution method. As to conditions: 13-1, 18 h.
The test system of assay [7] is Acinetobacter calcoaceticus. Put plainly: Antibacterial activity against carbapenem-resistant Acinetobacter calcoaceticus 12-6 after 18 hrs by CLSI broth microdilution method. To be noted: 12-6, 18 h.
For the next assay, the system named is Klebsiella aerogenes. Put plainly: Antibacterial activity against carbapenem-resistant Enterobacter aerogenes 11-4 after 18 hrs by CLSI broth microdilution method. As to conditions: 11-4, 18 h.
Assay [8] has as its system Enterobacter cloacae. In words: Antibacterial activity against new delhi metallo-beta-lactamase-1 harboring Enterobacter cloacae CDC1000654 after 18 hrs by CLSI broth microdilution method. As to conditions: CDC1000654, 18 h.
The subject of assay [9] is Enterobacter cloacae. Put plainly: Antibacterial activity against new delhi metallo-beta-lactamase-1 harboring Enterobacter cloacae 13-1 after 18 hrs by CLSI broth microdilution method. To be noted: 13-1, 18 h.

`C[C@@H](O)[C@H]1C(=O)N2C(C(=O)O)=C(S[C@@H]3CN[C@H](C(=O)N(C)C)C3)[C@H](C)[C@H]12` [MEROPENEM]: the MIC against Escherichia coli [1] was 4 µg/mL (≈ 10.4 µM); in the assay on Escherichia coli [2], 2 µg/mL (≈ 5.22 µM); against Klebsiella pneumoniae [3], 8 µg/mL (≈ 20.9 µM); in the assay with Klebsiella pneumoniae [4] it was 64 µg/mL (≈ 167 µM); in the assay with Klebsiella pneumoniae [5] it was 32 µg/mL (≈ 83.4 µM); in assay [6] it was 64 µg/mL (≈ 167 µM). Moreover, the MIC in assay [7] was 32 µg/mL (≈ 83.4 µM); against Klebsiella aerogenes, 32 µg/mL (≈ 83.4 µM); against Enterobacter cloacae [8] it was 2 µg/mL (≈ 5.22 µM); in the assay with Enterobacter cloacae [9], 32 µg/mL (≈ 83.4 µM).

Usually MIC stands for the lowest concentration found to suppress growth.
